Test results reported in patent US20250051327A1, “MALT-1 MODULATORS” (EXSCIENTIA AI LIMITED, priority 2020, published 2025).

Tests used:
[1] = tested on: IL-2 secretion by human effector memory T cells (TEM); assay: Effector memory T cells IL-2 release assay; assay type: cell-based; conditions: T-cell; human CD4+ effector memory T cells, CD3/CD28 bead stimulation, 24 h; read-out: CD4TC IL2 IC50
Outline: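 Human CD4+ effector memory T cells from healthy-donor buffy coats were stimulated with anti-CD3/CD28 Dynabeads and exposed to 10 semi-log compound doses (0.1% DMSO) for 24 h at 37 °C. Supernatant IL-2 was measured by HTRF, and IC50 came from a 4-parameter logistic fit to maximal IL-2. Viability was checked by flow cytometry.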

[2] = target: Recombinant human MALT-1 (amino acids 340-824) (Homo sapiens (Human), UniProt Q9UDY8); assay: MALT-1 inhibition assay (fluorogenic substrate Ac-LRSR-Rh110-DP); assay type: biochemical; conditions: recombinant human MALT-1, substrate Ac-LRSR-Rh110-DP
Outline: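 MALT-1 at 3 nM final was reacted with 10 μM Ac-LRSR-Rh110-DP, with substrate addition starting the reaction. Incubation ran 60 minutes at 25° C in the dark. Percent inhibition from fluorescence across doses was fitted to a 4-parameter logistic to give IC50.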

Sequence of Recombinant human MALT-1 (amino acids 340-824) (Q9UDY8 340-824): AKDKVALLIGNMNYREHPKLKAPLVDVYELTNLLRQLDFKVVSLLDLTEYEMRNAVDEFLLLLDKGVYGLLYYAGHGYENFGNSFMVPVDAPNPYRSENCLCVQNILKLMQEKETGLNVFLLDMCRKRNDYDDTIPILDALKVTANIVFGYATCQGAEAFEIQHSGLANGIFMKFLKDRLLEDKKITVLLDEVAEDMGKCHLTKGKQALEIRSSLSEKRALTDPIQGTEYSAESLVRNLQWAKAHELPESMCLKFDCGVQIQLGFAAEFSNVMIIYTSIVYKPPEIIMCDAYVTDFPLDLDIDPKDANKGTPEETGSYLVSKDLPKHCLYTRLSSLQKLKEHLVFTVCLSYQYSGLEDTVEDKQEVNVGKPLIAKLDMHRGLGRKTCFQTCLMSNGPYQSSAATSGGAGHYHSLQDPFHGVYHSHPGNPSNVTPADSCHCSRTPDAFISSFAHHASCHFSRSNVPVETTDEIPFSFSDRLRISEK

Row | SMILES | IC50 [1] [nM] | IC50 [2] [nM]
1 | CN(C(=O)[C@H]1C[C@H](S(C)(=O)=O)C1)[C@@H](c1ccc(N2CCCc3c2cnc2cc(Cl)nn32)cc1)C(F)(F)F [CPD0073501, trans-N-[(1S)-1-(4-{4-chloro-2,3,7,10-tetraazatricyclo[7.4.0.0^2,6]trideca-1(9),3,5,7-tetraen-10-yl}phenyl)-2,2,2-trifluoroethyl]-3-methanesulfonyl-N-methylcyclobutane-1-carboxamide] | 140 | 66
2 | CN(C(=O)[C@H]1C[C@@H](S(C)(=O)=O)C1)[C@@H](c1ccc(N2CCCc3c2cnc2cc(Cl)nn32)cc1)C(F)(F)F [CPD0073502, cis-N-[(1S)-1-(4-{4-chloro-2,3,7,10-tetraazatricyclo[7.4.0.0^2,6]trideca-1(9),3,5,7-tetraen-10-yl}phenyl)-2,2,2-trifluoroethyl]-3-methanesulfonyl-N-methylcyclobutane-1-carboxamide] | 104 | 61
3 | CN(C(=O)C1(C#N)CCS(=O)(=O)CC1)[C@@H](c1ccc(N2CCCc3c2cnc2cc(Cl)nn32)cc1)C(F)(F)F [CPD0073553, N-[(1S)-1-(4-{4-chloro-2,3,7,10-tetraazatricyclo[7.4.0.0^2,6]trideca-1(9),3,5,7-tetraen-10-yl}phenyl)-2,2,2-trifluoroethyl]-4-cyano-N-methyl-1,1-dioxo-1λ^6-thiane-4-carboxamide] | 77 | 50
4 | CN(C(=O)CN1CCS(=O)(=O)CC1)[C@@H](c1ccc(N2CCCc3c2cnc2cc(Cl)nn32)cc1)C(F)(F)F [CPD0073572, N-[(1S)-1-(4-{4-chloro-2,3,7,10-tetraazatricyclo[7.4.0.0^2,6]trideca-1(9),3,5,7-tetraen-10-yl}phenyl)-2,2,2-trifluoroethyl]-2-(1,1-dioxo-1λ^6-thiomorpholin-4-yl)-N-methylacetamide] | 253 | 163
5 | COC(=O)N1CCC(C(=O)N(C)[C@@H](c2ccc(N3CCCc4c3cnc3cc(Cl)nn43)cc2)C(F)(F)F)CC1 [CPD0073691, methyl 4-{[(1S)-1-(4-{4-chloro-2,3,7,10-tetraazatricyclo[7.4.0.0^2,6]trideca-1(9),3,5,7-tetraen-10-yl}phenyl)-2,2,2-trifluoroethyl](methyl)carbamoyl}piperidine-1-carboxylate] | 149 | 101
6 | CN(C(=O)C1CCS(=N)(=O)CC1)[C@@H](c1ccc(N2CC3(CC3)Cc3c2cnc2cc(Cl)nn32)cc1)C(F)(F)F (stereo partly drawn) [CPD0073761, N-[(1S)-1-[4-(4-chlorospiro[2,3,7,10-tetrazatricyclo[7.4.0.0^2,6]trideca-1(9),3,5,7-tetraene-12,1′-cyclopropane]-10-yl)phenyl]-2,2,2-trifluoro-ethyl]-1-imino-N-methyl-1-oxo-thiane-4-carboxamide] | 317 | 78
7 | CCN(C(=O)C1CCS(=O)(=O)CC1)[C@@H](c1ccc(N2CCCc3c2cnc2cc(Cl)nn32)cc1)C(F)(F)F [CPD0073918, N-[(1S)-1-(4-{4-chloro-2,3,7,10-tetraazatricyclo[7.4.0.0^2,6]trideca-1(9),3,5,7-tetraen-10-yl}phenyl)-2,2,2-trifluoroethyl]-N-ethyl-1,1-dioxo-1λ^6-thiane-4-carboxamide] | 145 | 106
8 | CN(C(=O)[C@@H]1CCC(=O)N1C)[C@@H](c1ccc(N2CCCc3c2cnc2cc(Cl)nn32)cc1)C(F)(F)F [CPD0073919, (2S)-N-[(1S)-1-(4-{4-chloro-2,3,7,10-tetraazatricyclo[7.4.0.0^2,6]trideca-1(9),3,5,7-tetraen-10-yl}phenyl)-2,2,2-trifluoroethyl]-N,1-dimethyl-5-oxopyrrolidine-2-carboxamide] | 112 | 61
9 | CN1C(=O)CC[C@@H]1C(=O)N(C)[C@@H](c1ccc(N2CCCc3c2cnc2cc(Cl)nn32)cc1)C(F)(F)F [CPD0073920, (2R)-N-[(1S)-1-(4-{4-chloro-2,3,7,10-tetraazatricyclo[7.4.0.0^2,6]trideca-1(9),3,5,7-tetraen-10-yl}phenyl)-2,2,2-trifluoroethyl]-N,1-dimethyl-5-oxopyrrolidine-2-carboxamide] | 94 | 60
